One data set in a line: Hygroscopic property. The data set is classed as physicochemical.
The nature of data set [1]: Acute toxicity of NaOGe in rats. The note with it: rat, in vivo, po; per os, male. The data set is classed as in vivo, Rats (Wistar strain). The source says:
(§1) Acute Toxicities of NaOGe according to the […]

The next data set concerns Rats (Wistar strain). Briefly: Acute toxicity of NaOGe in rats. The data set is classed as in vivo. The following applies: per os, female.
Description: as §1

Data set [2] in a line: Acute toxicity of NaOGe in mice. The data set is classed as in vivo, Mice (ICR strain). The following applies: mouse, in vivo, po; per os, male.
Description: as §1

The test system of another data set is Mice (ICR strain). The data set can be described thus: Acute toxicity of NaOGe in mice. It counts as in vivo. The note with it: per os, female.
Description: as §1

A short description of data set [3]: Effect of NaOGe on essential hypertension in human being. The data set is classed as in vivo. The following applies: in words. On the procedure: Dr. A. Ishikawa, of our research group, has investigated the effect of NaOGe on essential hypertension in human being. The adminstration of 40-150 mg/body of NaOGe was divided orally in two or three doses. The duration of drug administration was at the least 1 month, at the most 12 months. The following results are obtained:
(§2) *Numbers showing good response / total numbers

Data set [4] in a line: Effect of NaOGe on Diabetes Mellitus in human being. It counts as in vivo. The following applies: in words. On the procedure:
The duration of drug administration was at the least 1 month, at the most 12 months. The following results are obtained:
as §2
Dr. A. Ishikawa of our research group has investigated the effect of NaOGe on Diabetes Millitus in human being. The administration of 40-150 mg/kg body of NaOGe was divided orally in two or three doses.

Data set [5] in a line: Effect of NaOGe on development of amyloidosis in mice. The data set is classed as in vivo, ICR strain mice. The following applies: in words. Here is the method: From the above results, it was presumed that OGe might act not only hypertension but some of metabolic changes related to aging. Thus, the influence of NaOGe on the development of amyloidosis in mice was tested. The ICR strain mice had been treated with oral administration of NaOGe for 22 months. After that, all mice were sacrificed and the development of amyloidosis in several important organs was investigated.

The test system of the next data set is AH44. The data set can be described thus: Effect on ascites hepatoma AH44 in rats. The following applies: 100mg/kg/day for 10 days, all control rats died. The data set is classed as in vivo, Doryu rats. On the procedure:
(§3) Dr. H. Sato, of our research group, investigated the antitumor effect of NaOGe by using several strains of ascites hepatoma in rats. For this investigation, the following […] strains of hepatoma were used: AH13, AH130, AH272, AH44, AH66F, AH7974, AH41C, AH60C and AH109A. 10^7 cells of each strain tumor were inoculated intravenously into the Doryu rats, 72 hours later, 100mg/kg/day of OGe was administered for 10 days.

The next data set deals with AH66. Briefly: Effect on ascites hepatoma AH66 in rats. The following applies: 100mg/kg/day for 10 days, all control rats died. It counts as in vivo, Doryu rats. Here is the method:
as §3

For the next data set, the system named is ascites hepatoma. The data set can be described thus: Direct cytocidal action of NaOGe. Also noted: species or system rats. The note with it: in words.
The nature of another data set: Clinical use: epilepsy. The data set is classed as in vivo, patients. Here is the method:
A large amount therapy, 100-500mg/body/day in a dosis, is performed. […] In these points, the patients are humanly matured.

The next data set can be described thus: Clinical use: depression. The data set is classed as in vivo, patients. The following applies: about 100mg/body/day oral. The source says: In moderate depression, about at the 8th day after drug administration, the improvement is observed.
Data set [6] is described as follows: Clinical use: schizophrenia. It counts as in vivo, patients. The following applies: 200-300mg/body/day oral. Here is the method: The oral administration of 200mg/body/day ~ 300mg/body/day is necessary.
Data set [7] can be described thus: Clinical use: loss of autonomic nervous system function. It counts as in vivo, patients.
The nature of a further data set: Clinical use: migrain. It counts as in vivo.
The nature of data set [8]: Clinical use: peripheral neuritis. The note with it: 100mg/body/day. It counts as in vivo, patients.
Data set [9] is described as follows: Clinical use: acceleration of heart function. The data set is classed as in vivo, patients.
Data set [10] in a line: Clinical use: improvement of peripheral circulation. The data set is classed as in vivo, patient. From the text:
This is observed by plethysmography.

The nature of data set [11]: Clinical use: digestive system. It counts as in vivo. The source says:
The effect is found clearly by X-ray examination.

The nature of data set [12]: Clinical use: allergic diseases. The data set is classed as in vivo, patients.
A short description of data set [13]: Clinical use: kidney function. The note with it: in vivo.
A short description of data set [14]: Clinical use: therapy of dysfunction liver (hepatitis). The data set is classed as in vivo, patients. On the procedure: In patients receiving 100mg/body/day of the drug, the improvement of alkali phosphatase, SGOT, SGPT, ASAC and α-GPT and abnormal fraction of serum-protein was observed.
Data set [15] can be described thus: Clinical use: liver cirrhose. The data set is classed as in vivo, patients. The note with it: 100-200mg/body/day.
The next data set can be described thus: Clinical use: hepatoma. The following applies: in vivo.
Data set [16] can be described thus: Clinical use: effect in obstetrics. It counts as in vivo, patients. The source says:
The drug is particularly-effective on various symptoms including morning sickness caused by pregnance.

For a further data set, the system named is infants. The data set can be described thus: Clinical use: infants. It counts as in vivo.
A short description of data set [17]: Clinical use: protective effect of drug administration for long periods. It counts as in vivo. The note with it: 50mg/body/day administered with the others, long-term.
Data set [18] is described as follows: Clinical use: general fatigue, malaise and asthenia. It counts as in vivo.
Data set [19] concerns Spontaneously Hypertensive Rats. The data set can be described thus: Effect of NaOGe on blood pressure of spontaneously hypertensive rats. It counts as in vivo, rats (SHR strain). The note with it: in words. On the procedure:
To investigate the effect of NaOGe on hypertension, 100mg/kg/day of sodium salt of OGe had been administered to spontaneously hypertensive rats (SHR strain) and estimated the change of blood pressure.

Where [20] appears, read: cadmium chloride 2.0 mg/kg iv alone, 8th day of gestation.
Where [21] appears, read: 75mg/body/day, asthma bronchitis and chronic exanthema.

Results on four compounds are retold here after patent US4066678A (priority 1975, dated 1978).

Turning to `O=C([O-])C[CH2][Ge]([OH])([OH])[OH].[NH4+]` [Ammonium 3-trihydroxygermylpropionate], in the data set “Hygroscopic property”, the hygroscopic property entry is “hydroscopic”.
As to `[Cl][Cd][Cl]` [Cadmium chloride], the teratogenic action result in the data set with golden hamster (2.0mg/kg intravenously, 8th day of gestation, in words) was “produces cleft palate, exencepalia, harelips and open-eye lid”. In the data set with golden hamster (setting [20]), the Living fetuses was 4.9%, the Malformation came out at 25.5% and the Resorbed embryos was 51.0%.
With `O=C([O-])C[CH2][Ge]([OH])([OH])[OH].[Na+]` [NaOGe, Sodium 3-trihydroxygermylpropionate], the median lethal dose (LD50) in [1] was more than 10000 mg/kg. Also, the LD50 entry with Rats (Wistar strain) was “over 10 g/kg”. The LD50 in data set [2] is more than 10000 mg/kg. Further, the LD50 result in the data set on Mice (ICR strain) is on record as “over 10 g/kg”. Moreover, the “effect in treatment and prevention of essential hypertension” value in [3] is “effective in the treatment and the prevention of essential hypertension”. Also, the “effect on Diabetes Mellitus” value in [4] is recorded as “effective on Diabetes Mellitus”. Further, the development of amyloidosis result in data set [5] (30mg/kg/day) is reported as “a clear prevention of the development was observed”. For the same compound, the development of amyloidosis result in [5] (300mg/kg/day) is “completely inhibited the development of amyloidosis”. The “treated rats showing a complete cure” value in the data set on AH44 was “half”. Moreover, the “treated rats showing a complete cure” value in the data set on AH66 is “half”. In addition, in the data set with ascites hepatoma, the direct cytocidal action entry is reported as “does not possess direct cytocidal action”. In the data set “Clinical use: epilepsy” (100-500mg/body/day oral), the “EEG: epilepsy specific spike” value was “the loss of epilepsy specific spike is found”, the “EEG: slow burst” value was “the inhibition of slow burst is not observed”, the drowsiness result is “complete lack of drowsiness” and the grade of convulsion result is on record as “becomes lighter”. For the same compound, in “Clinical use: epilepsy” (100-500mg/body/day oral), the “interval of convulsion appearance” value is “becomes gradually longer”; the “learning and working ability” value was “the improvement of learning -- and working -- ability is observed”. Also, in the data set “Clinical use: epilepsy” (continued oral administration, 100-500mg/body/day), the absence of symptoms result is listed as “many patients did not show any symptom”. Further, in the data set “Clinical use: depression”, the depressive status entry is listed as “improvement of depressive status”, the drowsiness result is on record as “does not give any drowsiness” and the initiation of autonomy result was “clearly observed after drug administration”. Moreover, in [6], the hullucination result is “the disappearance of hullucination is accelerated”, the “self-recognization of the disease” value is recorded as “clearly found rather early after drug administration” and the working ability entry is reported as “The working ability is observed”. For the same compound, the “effect in patients resistant to other drugs” value in data set [7] (75mg/body/day oral) was “shows the effect on many patients showing resistance against any other drugs”. In data set [7] (after drug administration), the “objective and functional abnormality of various organs controlled by autonomic nervous system” value is “are not found after drug administration”. Further, the effect on migraine result in the data set “Clinical use: migrain” (75mg/body/day) was “effective on migraine”. Besides, in the data set “Clinical use: migrain” (in vivo), the “symptoms caused by brain-anemia” value is on record as “shows the effect on the symptoms caused by brain-anemia”. In addition, the “effect on peripheral neuritis” value in data set [8] is given as “become to enjoy normal daily life without serious pain”. Moreover, the blood-stream entry in data set [9] (75-150mg/body/day) was “increase of blood-stream”. Further, in [9] (75-150mg/body/day, patients with blood-loss ECG symptom), the ECG pattern result is “improvement of ECG pattern”. Further, in data set [9] (from the effect on the eye ground symptoms), the effect on blood-vessels entry is “stabilizing effect of blood-vessels”. The “subcutaneous bleeding of legs and hands” value in data set [9] (old people) was “inhibited”. In data set [10] (human, in vivo), the cold exanthema entry was “protects the appearance of cold exanthema”. The “peripheral circulating blood amount” value in data set [10] (single administration of 50 mg/body/day, plethysmography) is recorded as “increase of peripheral circulating blood amount”. Also, the “subjective symptoms and ulcers” value in data set [11] (X-ray examination) was “loss of subjective symptoms and the cure of ulcers”. In data set [11] (in vivo), the effect on constipation entry is reported as “effective on constipation”; the “movement of stomach and intestine” value is “modification of movement of stomach and intestine”. Also, in data set [11] (ulcers), the “effect compared with other therapy” value was “higher than any other therapy”. Besides, the “condition 6 months to 1 year after drug administration” value in [12] (75mg/body/day, 6 months to 1 year) is on record as “many patients show a condition looking like a complete cure”. Besides, in data set [12] (setting [21]), the frequency of symptom-appearance result is recorded as “decrease of the frequency of symptom-appearance”, the “interval of symptom appearance” value is “becomes longer” and the “use of adrenal cartex hormone” value was “decrease of adrenal cartex hormone or stop of the hormone”. Besides, in data set [12] (patients with drug allergy, given with an allergenic drug), the drug allergic reaction entry is on record as “any drug allergic reaction is not observed”. In data set [13], the appearance of proteiureia result is reported as “the appearance of proteiureia is inhibited” and the diuretic effect result was “diuretic effect is observed”. The “alkali phosphatase, SGOT, SGPT, ASAC and α-GPT and abnormal fraction of serum-protein” value in data set [14] (100mg/body/day) is “improvement”. Moreover, in data set [14] (human, in vivo), the “spontaneous cure of acute and chronic hepatitis” value is “acceleration of the spontaneous cure”. In [15], the ascites entry was “beginning of the loss of ascites”, the liver function entry is “acceleration of the recovery of liver function” and the “progress of liver dysfunction” value was “stopped the progress of liver dysfunction”. In addition, the life span result in “Clinical use: hepatoma” is “increase of life span”. Besides, the “effect in serious patients indicated for artificial pregnance stopping” value in [16] (100-200mg/body/day) is given as “effective one some serious patients”. For the same compound, the “symptoms including morning sickness” value in data set [16] (human, in vivo) is “particularly-effective”. Besides, the “actonic vomiting and autointoxication” value in the data set with infants (20 - 50 mg/body/day) is “effective on actonic vomiting and autointoxication of infants”. Also, the body weight result in the data set with infants (100-200mg/body/day, infants showing decrease of body weight) is “increase”. Also, in data set [17], the “side effects of tranquilizers and anti-tuberculosis drugs” value was “decrease of side effects”. Also, the “symptoms of general fatigue, malaise and asthenia” value in [18] (75mg/body/day) is “loss of the symptoms of general fatigue, malaise and asthenia”. Moreover, the “symptoms due to neurosis” value in data set [18] (increase of dose to 75mg/body/day) is reported as “early the disappearance of the symptoms due to neurosis”. Besides, in “Hygroscopic property”, the hygroscopic property result is reported as “hydroscopic”. Also, the “Malformation produced by cadmium chloride” value in the data set with golden hamster (NaOGe 40.0mg/kg, simultaneous intravenous injection, in words) was “prevented completely”.
For the compound `O=C(O)C[CH2][Ge]([OH])([OH])[OH]` [OGe, 3-trihydroxygermylpropionic acid], in data set [19], the “effect on hypertension in rats” value was “highly effective on hypertension in rats and the effect appears gradually”.
